From patent publication US4757079A, “Anti-hypertensive piperidine compounds” (Dynamac Corporaton, priority 1986, dated 1988) come the findings set out here.

One data set relates to guinea pig ileum. The experiment in a line: anticholinergic activity on the guinea pig ileum.
The test system of data set [1] is cat. Description: blood pressure and heart rate in the cat (i.v.). Type of data set: in vivo.
The test system of a further data set is neuromuscular function. Description: neuromuscular twitch response in the cat. Type of data set: in vivo.
The subject of data set [2] is peripheral muscarinic receptors. The experiment in a line: response to vagal stimulation or to exogenous acetylcholine in the cat. Type of data set: in vivo. The settings on record: 1 to 10 mg/kg i.v.
Data set [3] relates to rat hemidiaphragm preparation. Description: rat hemidiaphragm preparation, perfusate volume (vasodilatory effect).
The next data set relates to nictitating membrane. Description: responsiveness of the nictitating membrane to pre- or post-ganglionic stimulation in the cat. Type of data set: in vivo. The following applies: 1 to 10 mg/kg i.v.
The test system of data set [4] is cat. Description: heart rate and mean blood pressure in cats pretreated with hexamethonium and atropine. Type of data set: in vivo. The following applies: compared with absence of the blocking agents.

Structures can show the parent of a compound that is named as a salt.

Consider `CN1CCC(/C=C/c2cccc3ccccc23)CC1` [B-120, 1-methyl-4-(1-naphthylvinyl)piperidine hydrochloride], for which the anticholinergic activity result in the data set on guinea pig ileum was “essentially devoid of anticholinergic activity”. The “anticholinergic potency on a relative scale vs atropine sulfate” value with guinea pig ileum (relative to atropine sulfate) is reported as 5.5×10^-4. In the data set on cat [1] (5.0 mg/kg i.v., cat), the “Heart Rate” value amounted to 90 % Control, the “Mean Blood Pressure” value was 60 % Control and the “Pulse Pressure” value stood at 110 % Control. Also, in the data set with cat [1] (10.0 mg/kg i.v., cat), the “Heart Rate” value was 80 % Control, the “Mean Blood Pressure” value stood at 30 % Control and the “Pulse Pressure” value was 70 % Control. In the data set on cat [1] (50 mg/kg i.v., cat), the heart rate rhythm entry is on record as “did not show evidence of abnormal rhythm”. In the data set with cat [1] (50.0 mg/kg i.v., cat), the “Heart Rate” value is reported as 0 % Control, the “Mean Blood Pressure” value worked out at 0 % Control and the “Pulse Pressure” value is reported as 0 % Control. Also, in the data set on cat [1] (0.5 to 50 mg/kg i.v., cat), the Heart Rate entry was “dose-related decrease”, the Mean Blood Pressure entry is “dose-related decrease” and the “diastolic versus systolic blood pressure” value is “greater decrease in diastolic than systolic blood pressure”. Further, the death entry with cat [1] (in vivo) is on record as “death appeared to be caused by hypotensive crisis”. Also, in the data set with neuromuscular function, the neuromuscular twitch response result is listed as “no significant decrease”. Moreover, in data set [2], the “response to exogenous acetylcholine” value is “did not alter the response” and the “response to vagal stimulation” value is listed as “did not alter the response”. Also, the “increase in perfusate volume” value in data set [3] (17.5 mg/L) is on record as “not significant”. Further, the “perfusate volume after removal of the B-120” value in data set [3] (after 35 mg/L) is recorded as “returned to normal”. Besides, in the data set with nictitating membrane, the “responsiveness of the nictitating membrane to pre- or post-ganglionic stimulation” value is reported as “did not diminish the responsiveness”. Further, in the data set with cat [4], the “reduction in heart rate” value is “comparable to that induced in the absence of the blocking agents” and the “reduction in mean blood pressure” value is “comparable to that induced in the absence of the blocking agents”.
